Values joined by “and” are separate entries in the source; they are usually repeats but may differ in a detail not shown here. Equal values may be shown once.
Assays:
[1] = Pharmacokinetics of CDU in plasma after intravenous administration of 25 mg/kg to rats; type: in vivo, Sprague-Dawley rats
Procedure: 5-Carboranyl-2'-deoxyuridine (CDU) was synthesized by the method of Yamamoto, et al. The chemical purity, confirmed by ^1 H NMR spectral and high-pressure liquid chromatography (HPLC) analysis, was greater than 98%. For intravenous administration, CDU was dissolved in dimethylsulfoxide (DMSO). Internal standard, progesterone, and β-glucuronidase were purchased from Sigma Chemical Company (St. Louis, Mo.). Methanol, HPLC grade, and all other chemicals, analytical grade, were obtained from J. T. Baker (Phillipsburg, N.J.). Partition coefficients were determined one hour after administration.
Five adult male Sprague-Dawley (Harlan Laboratories, Indianapolis, Ind.) rats weighing 303±8 g (mean±SD) were used for the pharmacokinetic study. Rats were housed in a 12 hour light/12 hour dark, constant temperature (22° C.) environment with free access to standard laboratory chow and water. Animals were acclimatized to this environment for one week before the experiment. External jugular vein cannulas were implanted under ketamine:acepromazine:xylazine (50:3.3:3.3 mg/kg) anesthesia the day before the experiment. Rats were fasted overnight, however, water was available ad libitum.
On the morning of the experiment, rats were placed in individual metabolism cages. CDU […]) was administered intravenously in 0.1 ml of DMSO to the rats over a one minute period. Blood samples (0.35 ml) were collected prior to and at […], 2, 3, 4, 5, 6, 7 and 8 hour after CDU administration from the cannula into heparinized polypropylene microcentrifuge tubes. Blood volume was replaced with an equal volume of normal saline. Blood samples were immediately centrifuged at 2000 g for 5 minutes and plasma was separated and frozen at -20° C. until analysis. Urine was collected for 24 hour following CDU administration. Urine volume was measured and samples were frozen at -20° C. until analysis.
Concentrations of CDU in plasma, brain, and urine were determined by HPLC. For the determination of CDU in brain, the brain tissue was homogenized in a 1:2 (g:ml) ratio with isotonic sodium phosphate buffer, pH 7.4. To 200 μl of plasma or brain homogenate in a glass test tube, 50 μl of internal standard (20 μg/ml progesterone) and 5 ml of methylene chloride was added. Tubes were shaken for 15 minutes at low speed on a shaker, centrifuged for 5 minutes at 2000 rpm, and the plasma layer was aspirated off using a vacuum system. The remaining methylene chloride was transferred to a glass culture tube and evaporated to dryness under a stream of nitrogen gas at ambient temperature. The residue was reconstituted with 250 μl of methanol and injected onto HPLC system.
Chromatography was performed on a Hypersil ODC column (5 μm particle size, 4.6×150 mm; Alltech Associates Inc., Deerfield, Ill.) with an online guard column and an isocratic mobile phase of 65% methanol in 10 mM monobasic potassium phosphate, pH 6.3 at a flow rate of 1.5 ml/min. Compounds were detected at a UV wavelength of 274 nm with a detector range setting of 0.005 absorbance units, full scale.
The retention times of CDU and internal standard were 4.7 and 8.6 min, respectively. Sample CDU concentrations were calculated from the slope of calibration plots of the peak area ratio of CDU:internal standard versus standard CDU concentrations. The slopes and intercepts were generated using weighted (1/x^2) least-squares regression analysis. Standard curves were linear in the range of 0.1 μg/ml to 50 μg/ml. The intra- and inter-day relative standard deviations over the range of standard concentrations in all biological media were less than 10%. The extraction recoveries of CDU and progesterone were 99% and 95%, respectively.
Area/moment analysis was used to calculate pharmacokinetic parameters of CDU. […]

[2] = test system: xenographed human prostate tumor; experiment: Accumulation of CDU in xenographed human prostate tumor, brain and serum of nude mice; type: in vivo
Source text: The development of the immunodeficient athymic nude mouse has permitted the establishment of human tumors in serial transplantation which provides a representative model of the human disease state. This system, which uses the subcutaneous or subrenal capsule assay is particularly useful in assessing new therapeutic strategies in the treatment of human malignancies and ensures the availability of a constant source of non-attenuated fresh human tumor cells.
Any of these systems can be used to evaluate the extent of accumulation of a selected boron-containing compound in a selected urogenital cancer cell line, or the effect of irradiation of the accumulated compound on that cell line. A detailed example of the evaluation of the accumulation of CDU in a xenographed human prostate tumor obtained from nude mice treated intraperitoneally with 5 mg/kg of tritiated CDU (15 μCi/mouse) is provided in Example 5.
To analyze the concentration of ^10 B-containing compounds in urogenital tissue, the tumor is removed from the animal and then lyophylized. The ^10 B-containing compounds are extracted with a methanol/water solution, and then counted using known methods.
Table 1 provides a summary of the accumulation of CDU in a xenographed human prostate tumor on nude mice treated intraperitoneally with 5 mg/kg of tritiated CDU (15 μCu/mouse). […] The compound partitions in a ratio of approximately 2:1 in the prostate versus blood serum.

[3] = Toxicity study: weight change and survival of normal Swiss mice; type: in vivo, Swiss female mice; details: 30 mg/kg/day i.p.
Procedure: A toxicity study was conducted on 6-week-old Swiss female mice treated with CDU and CFAU at 30 mg/kg/day. The compounds were prepared in sterile DMSO and injected intraperitoneally (0.1 mL). DMSO and water were used as controls, with the same injection volume as that used for the CDU and CFAU solutions. The dosing schedule used was once a day for 6 days, and the mice were weighed biweekly for 28 days. Results shown in Table 3 somewhat correlate with the cytotoxicity assays in vitro.

[4] = 25 mg/kg i.v., rats, total plasma concentrations, 25 mg/kg
[5] = 25 mg/kg i.v., individual rat, 25 mg/kg
[6] = 25 mg/kg i.v., individual rat, unbound
[7] = 25 mg/kg i.v., mean of five rats
[8] = 25 mg/kg i.v., mean of five rats, unbound
[9] = brain, 1 hr after CDU, 5 mg/kg tritiated CDU i.p.
[10] = brain, 2 hr after CDU, 5 mg/kg tritiated CDU i.p.
[11] = serum, 1 hr after CDU, 5 mg/kg tritiated CDU i.p.
[12] = serum, 2 hr after CDU, 5 mg/kg tritiated CDU i.p.
[13] = tumor, 2 hr after CDU, 5 mg/kg tritiated CDU i.p.

5-carboranyl-2'-deoxyuridine [CDU]
decline of plasma concentrations (in words) ([1]; 25 mg/kg i.v., rats): declined in a biexponential fashion | volume of distribution based on unbound CDU concentrations ([1]; 25 mg/kg i.v., rats): 15.5 kg⁻¹ | clearance based on unbound plasma CDU concentrations (CLf) ([1]; 25 mg/kg i.v., rats, average): 255.5 ± 74 mL/min/kg and 255 mL/min/kg | terminal half-life ([1]; 25 mg/kg i.v., rats, mean±SD): 1.26 ± 0.28 h | steady-state volume of distribution [1, 4]: 0.70 ± 0.23 kg⁻¹ and 0.7 kg⁻¹ | total clearance [1, 4]: 11.5 ± 3.3 mL/min/kg and 11.5 mL/min/kg | AUC, individual rats [1, 5]: 32.39 mg h 1^-1 and 25.14 mg h 1^-1 and 44.68 mg h 1^-1 and 42.49 mg h 1^-1 and 47.28 mg h 1^-1 | CLT, individual rats [1, 5]: 0.77 1 h^-1 kg^-1 and 0.99 1 h^-1 kg^-1 and 0.56 1 h^-1 kg^-1 and 0.59 1 h^-1 kg^-1 and 0.53 1 h^-1 kg^-1 | MRT, individual rats [1, 5]: 1.17 h and 0.51 h and 0.81 h and 1.64 h and 1.24 h | V33 (steady-state volume of distribution), individual rats [1, 5]: 0.90 1 kg^-1 and 0.51 1 kg^-1 and 0.45 1 kg^-1 and 0.97 1 kg^-1 and 0.65 1 kg^-1 | t1/2, individual rats [1, 5]: 1.46 h and 1.20 h and 0.81 h and 1.54 h and 1.28 h | CLf, individual rats [1, 6]: 17.15 1 h^-1 kg^-1 and 22.33 1 h^-1 kg^-1 and 12.36 1 h^-1 kg^-1 and 13.07 1 h^-1 kg^-1 and 11.76 1 h^-1 kg^-1 | Vss,f, individual rats [1, 6]: 20.02 1 kg^-1 and 11.29 1 kg^-1 and 10.09 1 kg^-1 and 21.56 1 kg^-1 and 14.53 1 kg^-1 | AUC, mean [1, 7]: 38.39 mg h 1^-1 | MRT, mean [1, 7]: 1.07 h | V33 (steady-state volume of distribution), mean [1, 7]: 0.70 1 kg^-1 | t1/2, mean [1, 7]: 1.26 h | CLf, mean [1, 8]: 15.33 1 h^-1 kg^-1 | Vss,f, mean [1, 8]: 15.50 1 kg^-1 | metabolic intrinsic clearance of free drug ([1]; estimated, unbound drug): 333 mL/min/kg | Mean DPM/mg of dry weight, brain, 1 hr [2, 9]: 42.8 DPM/mg of dry weight | pmole/mg of dry weight, brain, 1 hr [2, 9]: 0.32 pmole/mg of dry weight | Mean DPM/mg of dry weight, brain, 2 hr [2, 10]: 23.4 DPM/mg of dry weight | pmole/mg of dry weight, brain, 2 hr [2, 10]: 0.17 pmole/mg of dry weight | accumulation in the prostate cancer cells (in words) ([2]; over brain tissue and serum, 5 mg/kg tritiated CDU i.p.): significantly accumulates in the prostate cancer cells, and preferentially so, over brain tissue and serum | Mean DPM/mg of dry weight, serum, 1 hr [2, 11]: 181.0 DPM/mg of dry weight | pmole/mg of dry weight, serum, 1 hr [2, 11]: 1.33 pmole/mg of dry weight | Mean DPM/mg of dry weight, serum, 2 hr [2, 12]: 111.0 DPM/mg of dry weight | pmole/mg of dry weight, serum, 2 hr [2, 12]: 0.82 pmole/mg of dry weight | pmole/mg of dry weight, tumor, 1 hr ([2]; tumor, 1 hr after CDU, 5 mg/kg tritiated CDU i.p.): 3.60 pmole/mg of dry weight | Mean DPM/mg of dry weight, tumor, 1 hr ([2]; tumor, 1 hr after CDU, 5 mg/kg tritiated CDU i.p. (15 μCi/mouse)): 489.1 DPM/mg of dry weight | Mean DPM/mg of dry weight, tumor, 2 hr [2, 13]: 256.7 DPM/mg of dry weight | pmole/mg of dry weight, tumor, 2 hr [2, 13]: 1.89 pmole/mg of dry weight | weight loss after 1 week (in words) ([3]; CFAU and CDU compared): comparable weight loss after 1 week | weight recovery at 4 weeks (in words) ([3]; surviving animals): all the surviving animals recovered their weight loss to control untreated levels | % of weight gained or lost on week 1 ([3]; week 1, once a day for 6 days): -7.4% | % of weight gained or lost on week 2 ([3]; week 2, once a day for 6 days): 0.1% | % of weight gained or lost on week 3 ([3]; week 3, once a day for 6 days): 4.8% | % of weight gained or lost on week 4 ([3]; week 4, once a day for 6 days): 11.2% | survival at week 4, alive/total ([3]; week 4, once a day for 6 days): 5/5 | survival at week 4 (%) ([3]; week 4, once a day for 6 days, 40320 min): 100%

— US5872107A, “Treatment of urogenital cancer with boron neutron capture therapy” (Emory University, priority 1997, dated 1999)
